In brackets after ≈: the same amount, converted by molar mass. Where two headings read alike, the source gives them in different places. Blank lines part the entries; values can stand above or below the molecule they belong to.
Key:
[1] = system: ENT CLOACAE multi-drug resistant strains; assay: MIC against multi-drug resistant strains (Table 5); assay type: cell-based, E. cloacae; details: Enterobacter cloacae, alone, read-out: MIC
Method: (§1) MIC experiments of the antimicrobial agents were determined by a modified broth microdilution method in accordance with the Clinical and Laboratory Standards Institute (CLSI) guidelines using 96 well culture plates. In brief, serial dilutions of all plates were prepared at different concentrations (μg). The inoculum suspension was prepared by adding isolated colonies from a 18-20 hours on TSA plate into phosphate buffer (0.31 mM, pH 7.2) or in water for injection (BBraun) and adjusting the suspension to a turbidity equivalent to 0.5 McFarland Standard. Each well contained a final bacterial concentration of approximately 5×10^5 colony forming units (CFU)/mL. The plate was covered and incubated at 35° C. for 24 hours. […] For the microdilution plates, turbidity in wells can be measured at OD600 using TECAN infinite M200Pro. MIC was determined as […] concentration that gives a 99 percent inhibition.

[2] = system: ACBA multi-drug resistant strains; assay: MIC against multi-drug resistant strains (Table 5); assay type: cell-based, Acinetobacter baumannii; details: Acinetobacter baumannii
Method: as §1

[3] = system: KLPN multi-drug resistant strains; assay: MIC against multi-drug resistant strains (Table 5); assay type: cell-based, Klebsiella pneumonia; details: Klebsiella pneumoniae, alone, read-out: MIC
Method: as §1

various pathogens = assay: organism not typed; assay type: cell-based
Method: The MICs of the individual drugs and LC compound in combinations were determined using the broth microdilution technique as recommended by the CLSI whereby the two anti-microbial agents were added in an equal amount. (e.g.: 50 μL of Colistin: 50 μL of LC compounds). Diluted media containing compounds and antibiotics will be serially diluted 2-fold, and LC compounds and antibiotics alone or in combination will be assayed at fixed synergy concentration. In all cases, the lowest concentration at which no visible growth occurred was be recorded to be the MIC value of individual and combined antibacterial agents. The results were obtained after 24 hours of incubation.
Using the combination of LC100 and colistin, the activity of a broad range of strains was further tested (Table 7).

[4] = system: MCR positive E. coli Clinical isolate 6083655967; assay type: in vivo; details: neutropenic mice, i.p. 1 hour after infection, 6 hours after treatment; colistin 10 mg/kg, LC100 50 mg/kg, meropenem 100 mg/kg, combination 50 + 10 mg/kg
Method: FIG. 21 refers to graphs showing the efficacy testing of combination of LC100 and Colistin in neutropenic mouse thigh infection model infected with MCR positive E. coli Clinical isolate 6083655967. Starting inoculum was 1.87×10^6, N=3. “Combination” refers to Colistin 10 mg/kg+LC100 50 mg/kg. Each treatment was done intraperitoneally 1 hour after infection. 6 hours after treatment, mouse thigh tissues were homogenized for viable CFU.
The combination of colistin and antimicrobial peptide (LC100) was tested against E. coli clinical isolate MCR-positive strain 6083655967 in a neutropenic mouse thigh infection model. C57BL/6 mice were rendered neutropenic by cyclophosphamide, dosed at 150 and 100 mg kg-1 delivered on days −4 and −1 prior to infection. Bacteria were suspended in sterile saline and adjusted to a concentration of ˜1.876×10^6 CFU per infection site (100 micro-liters) and injected intramuscularly into the right thigh of five mice per treatment group. At 1 h post infection, mice received colistin ([…], i.p. n=5), LC100 (50 mg kg-1, i.p. n=5), untreated (n=5), or the combination (n=5). Mice were euthanized 6 h after infection; thigh tissue was aseptically collected, homogenized, serially diluted in PBS and plated onto solid TSA supplemented plates. Plates were incubated overnight at 37° C. and colonies were quantified to determine bacterial load.
To evaluate the in vivo efficacy of the combination of LC100 and colistin, a neutropenic mouse thigh infection model was used. 30 mice were classed into 5 groups: control, colistin at 10 mg/kg, LC100 at 50 mg/kg, meropenem at 100 mg/kg and combination of 50 mg/kg of LC100 and 10 mg/kg of colistin. Each treatment was administered intraperitoneally 1 hour after infection. The starting inoculum was 1.87×10^6, and 6 hours after treatment, mouse thigh tissues were homogenized for viable CFU. […] As neutropenic mice were used in the study, the 1.2 log reduction in bacterial burden is due to the combination of LC100 and colistin rather than the immune system of the mouse.

[5] = system: EC strains (CRE strains, colistin sensitive); assay: MIC of polymyxin B or colistin alone (Table 4); assay type: cell-based, E. coli; set-up: unit: μg/mL
Method: as §1

[6] = system: PAE strains (CRE strains, colistin sensitive); assay: MIC of polymyxin B or colistin alone (Table 4); assay type: cell-based, P. aeruginosa; set-up: unit: μg/mL
Method: as §1

[7] = ATCC19606, strain ACBA ATCC 19606, alone, read-out: MIC
[8] = strain ACBA 1012, alone, read-out: MIC
[9] = strain ACBA 43357, alone, read-out: MIC
[10] = Escherichia coli, 6083655967 [MCR 1+, E. Coli]
[11] = Escherichia coli, 6093560257 [MCR 1+, E. Coli, NDM-1]
[12] = Escherichia coli, 6123520276 [MCR 1+, E. Coli]
[13] = Escherichia coli, 7023436560 [MCR 1+, E. Coli]
[14] = Escherichia coli, 7023444207 [MCR 1+, E. Coli]
[15] = Escherichia coli, 7023446108 [MCR 1−, E. Coli]
[16] = Escherichia coli, 7033607097 [MCR 1−, E. Coli]
[17] = Escherichia coli, 7103531927 [MCR 1+, E. Coli, KPC+]
[18] = Escherichia coli, 7113636863 [MCR 1+, E. Coli, NDM-1]

MIC ([1]; strain ENT CLOACAE 6780): > 50 µg/mL
MIC ([1]; strain ENT CLOACAE 21489): 0.78 µg/mL (≈ 1.33 µM)
MIC ([1]; strain ENT CLOACAE 30063): 25 µg/mL (≈ 42.7 µM)
MIC ([1]; strain ENT CLOACAE 44095): 25 µg/mL (≈ 42.7 µM)
MIC [2, 7]: 12.5 µg/mL (≈ 21.3 µM)
MIC ([2]; strain ACBA 1010, alone, read-out: MIC): 1.56 µg/mL (≈ 2.66 µM)
MIC [2, 8]: > 50 µg/mL
MIC [2, 9]: 50 µg/mL (≈ 85.4 µM)
MIC ([3]; strain KLPN 8852): 12.5 µg/mL (≈ 21.3 µM)
MIC ([3]; strain KLPN 15588): > 50 µg/mL
MIC ([3]; strain KLPN 24076): 3.12 µg/mL (≈ 5.34 µM)
MIC ([3]; strain KLPN 27025): 3.12 µg/mL (≈ 5.34 µM)
Molecule: NCC[C@H](O)C(=O)N[C@@H]1C[C@H](N)[C@@H](O[C@H]2O[C@H](CN)[C@@H](O)[C@H](O)[C@H]2O)[C@H](O)[C@H]1O[C@H]1O[C@H](CO)[C@@H](O)[C@H](N)[C@H]1O [Amikacin]

Molecule: C[C@@H](O)[C@H]1C(=O)N2C(C(=O)O)=C(S[C@@H]3CN[C@H](C(=O)N(C)C)C3)[C@H](C)[C@H]12 [meropenem]
MIC (various pathogens; ACBA 1010 (CI)): 1.56 µg/mL
MIC (various pathogens; [10]): < 0.0975 µg/mL
MIC (various pathogens; [11]): > 50 µg/mL
MIC (various pathogens; [12]): < 0.0975 µg/mL
MIC (various pathogens; [13]): < 0.0975 µg/mL
MIC (various pathogens; [14]): < 0.0975 µg/mL
MIC (various pathogens; [15]): < 0.0975 µg/mL
MIC (various pathogens; [16]): < 0.0975 µg/mL
MIC (various pathogens; [17]): 25 µg/mL
MIC (various pathogens; [18]): 50 µg/mL
MIC (various pathogens; Escherichia coli, E. Coli CRE 11804): > 25 µg/mL
MIC (various pathogens; Escherichia coli, E. Coli CRE 17232, ⅙ MHB): < 0.195 µg/mL
MIC (various pathogens; Escherichia coli, E. Coli CRE 17528): 1.56 µg/mL
MIC (various pathogens; KLPN CRE 7955): > 25 µg/mL
MIC (various pathogens; KLPN CRE 16260): > 50 µg/mL
MIC (various pathogens; KLPN CRE 27025): > 50 µg/mL
MIC (various pathogens; KLPN CRE 55301): 0.39 µg/mL
MIC (various pathogens; PAE DM 4150): 1.56 µg/mL
MIC (various pathogens; PAE DM 23155): 0.195 µg/mL
MIC (various pathogens; PAE DM 23257): 0.78 µg/mL
MIC (various pathogens; PAE DM 23376): 0.39 µg/mL
MIC (various pathogens; PAE DR 4877): 1.56 µg/mL
MIC (various pathogens; PAE DR 5790): 6.25 µg/mL
MIC (various pathogens; PAE DU 14476): > 25 µg/mL
reduction in bacterial burden [4]: 2 log

Molecule: Polymyxin B
MIC (antibiotic alone) ([5]; strain EC 17232): 0.195
MIC (antibiotic alone) ([5]; strain EC 17528): 0.78
MIC (antibiotic alone) ([5]; strain EC 19963): 1.56
MIC (antibiotic alone) ([6]; strain PAE 4877): 1.56
MIC (antibiotic alone) ([6]; strain PAE 5790): 1.56
MIC (antibiotic alone) ([6]; strain PAE 14476): 1.56

Molecule: C[C@@H](O)[C@H]1C(=O)N2C(C(=O)O)=C(SCCN=CN)C[C@H]12 [Imipenem]
MIC ([1]; strain ENT CLOACAE 6780): > 50 µg/mL
MIC ([1]; strain ENT CLOACAE 21489): > 50 µg/mL
MIC ([1]; strain ENT CLOACAE 30063): > 50 µg/mL
MIC ([1]; strain ENT CLOACAE 44095): > 50 µg/mL
MIC (various pathogens; ACBA 1010 (CI)): 25 µg/mL
MIC (various pathogens; ACBA ATCC 19606): 25 µg/mL
MIC (various pathogens; ACBA DR 43357): > 50 µg/mL
MIC (various pathogens; [10]): 0.0975 µg/mL
MIC (various pathogens; [11]): 12.5 µg/mL
MIC (various pathogens; [12]): < 0.0975 µg/mL
MIC (various pathogens; [13]): < 0.0975 µg/mL
MIC (various pathogens; [14]): 0.0975 µg/mL
MIC (various pathogens; [15]): 0.0975 µg/mL
MIC (various pathogens; [16]): 0.195 µg/mL
MIC (various pathogens; [17]): 6.25 µg/mL
MIC (various pathogens; [18]): 12.5 µg/mL
MIC (various pathogens; KLPN CRE 15588): > 50 µg/mL
MIC (various pathogens; KLPN CRE 27025): > 50 µg/mL
MIC (various pathogens; PAE DM 4150): 3.12 µg/mL
MIC (various pathogens; PAE DM 23155): 0.78 µg/mL
MIC (various pathogens; PAE DM 23257): 0.78 µg/mL
MIC (various pathogens; PAE DM 23376): 1.56 µg/mL
MIC (various pathogens; PAE DR 4877): 1.56 µg/mL
MIC (various pathogens; PAE DR 5790): 6.25 µg/mL
MIC (various pathogens; PAE DU 14476): > 25 µg/mL
MIC [2]: 12.5 µg/mL (≈ 41.8 µM)
MIC [2, 7]: 25 µg/mL (≈ 83.5 µM)
MIC [2, 8]: > 50 µg/mL
MIC [2, 9]: > 50 µg/mL
MIC ([3]; strain KLPN 8852): > 50 µg/mL
MIC ([3]; strain KLPN 15588): > 50 µg/mL
MIC ([3]; strain KLPN 24076): > 50 µg/mL
MIC ([3]; strain KLPN 27025): > 50 µg/mL

— US12473250B2, “Molecular design of new antibiotics and antibiotic adjuvants against MCR strains” (priority 2019, dated 2025)
